Results as given in patent US20240139214A1, “AGENT FOR SUPPRESSING IL-31 PRODUCTION AND PHARMACEUTICAL COMPOSITION CONTAINING THE SAME” (KYUSHU UNIVERSITY, NATIONAL UNIVERSITY CORPORATION, priority 2021, published 2024).

How the values were obtained:
IL-4 gene (Il4) = test: IL-4 gene expression in CD4+ T cells from Dock8−/− AND Tg mice (real-time PCR); type: cell-based, mouse; settings: 2.5 μM; FIG. 2B
Experimental: (§1) Total RNA was isolated using ISOGEN (Nippon Gene Co., Ltd.). For amplification by PCR, RNA samples treated with RNase-free DNase I (Thermo Fisher Scientific) were reverse-transcribed with oligo(dT) primers (TFS) and SuperScript III reverse transcriptase (TFS). Real-time PCR was performed in a CFX Connect™ thermal cycler (BIO-RAD) using SYBR Green PCR Master Mix (Thermo Fisher Scientific). The expression of mouse and human target genes was normalized to expression of Hprt and PPIB genes, respectively. CFX Manager software (ver.3.1) supplied with the instrument was used for analysis.
(§2) CD4^+ T cells (3×10^5 cells) from Dock8^−/− AND Tg mice were cultured with T cell-depleted irradiated spleen cells (5×10^6 cells) containing a test compound (2.5 μM) or a vehicle alone (0.1% DMSO), in the presence of MCC88-103 (3 μg/ml) for 24 hours.

IL-31 = IL-31 production by SEB-stimulated human CD4+ T cells of AD patients (AlphaLISA); type: cell-based; settings: SEB stimulation; FIG. 9A
CD4+ T cells = test: T cell proliferation assay (PMA and ionomycin, 3H-thymidine incorporation); type: cell-based, mouse
Experimental: A T cell proliferation assay was performed by culturing CD4^+ T cells (5×10^4 cells) with T cell-depleted irradiated spleen cells (1×10^6 cells) in the presence of phorbol 12-myristate 13-acetate (PMA: 100 ng/ml; Sigma-Aldrich) and ionomycin (1 μg/ml; Sigma-Aldrich) for 66 hours. For the last 18 hours of culture, ^3H-thymidine (0.037 MBq) was added, and the incorporated radioactivity was measured with MicroBeta^2 (PerkinElmer, Inc., Waltham, MS).
A T cell proliferation assay was performed by culturing CD4^+ T cells (5×10^4 cells) with T cell-depleted irradiated spleen cells (1×10^6 cells) in the presence of phorbol 12-myristate 13-acetate (PMA: 100 ng/ml; Sigma-Aldrich) and ionomycin (1 μg/ml; Sigma-Aldrich) for 66 hours. Test compounds were added at various final concentrations at the start of culture. For the last 18 hours of culture, ^3H-thymidine (0.037 MBq) was added, and the incorporated radioactivity was measured with MicroBeta^2 (PerkinElmer, Inc., Waltham, MS). […]

IL-2 = IL-2 production by SEB-stimulated human CD4+ T cells of AD patients (AlphaLISA); type: cell-based; settings: SEB stimulation; FIG. 9B
[1] = system: human IL-31 gene promoter; test: Luciferase reporter assay of human IL-31 gene promoter in MEFs in the presence of human EPAS1; type: cell-based; settings: reporter construct (−1,308 to −1) in MEFs
[2] = Single-dose toxicity study, oral administration; type: in vivo; settings: 100-mg oral administration
Experimental: From these, it is determined that compound 1 is a highly safe compound with low cytotoxicity.

[3] = Blood concentration after oral administration; type: in vivo; settings: 100 mg orally, C57BL/6 mice, monitored 24 hours; FIG. 5
Experimental: After compound 1 (100 mg) was orally administered to C57BL/6 mice (n=3), its blood concentration was monitored for 24 hours.

CAG-OVA mice = test: Scratch behavior measurement in CAG-OVA mice injected with activated CD4+ T cells from Dock8−/− OTII Tg mice; type: in vivo; settings: oral administration; FIG. 6
Experimental: Mice were put into an acrylic cage (11×14×20 cm) for at least 1 hour for acclimation, and their behaviors were videotaped. Playback of the video was used for determination of the total number of scratching bouts per 2 hours. When mice scratch, they stretch their hind paw toward the itchy spot, lean their head toward the hind paw, rapidly move the paw several times, and then lower it back to the floor. A series of these movements was counted as one bout of scratching.
To investigate whether compound 1 has an itch inhibitory action, mice expressing ovalbumin (OVA) under the control of the cytomegalovirus immediate early enhancer-chicken β-actin hybrid promoter (hereafter referred to as “CAG-OVA mice”) were used. Activated CD4^+ T cells (8.0×10^6 per mouse) from Dock8^−/− OTII Tg mice were stimulated with OVA323-339 (ISQAVHAAHAEINEAGR (SEQ ID NO: 2), 1 μg/ml) for 72 hours and intravenously injected into CAG-OVA mice, and the scratch behavior of the mice was measured 1 hour later. As a result, when the activated CD4^+ T cells were injected into CAG-OVA mice, scratch behavior was induced (see the results of the vehicle in FIG. 6).

[4] = system: VEGFA expression in human cancer cell line HT1080; test: Hypoxia-induced VEGFA expression in HT1080; type: cell-based; settings: HT1080, 1% O2; FIG. 7
Experimental: (§3) Human sarcoma cell line HT1080 was provided by Y. Matsumoto (Kyushu University). For hypoxic induction, HT1080 (3×10^5 cells) was cultured in 1% O2 for 12 hours before assays.
as §1
(§4) (1) Although EPAS1 is known to control hypoxic responses through complex formation with aryl hydrocarbon receptor nuclear translocator (ARNT) (NPL 6), EPAS1-mediated Il31 promoter activation is independent of ARNT (NPL 4). FM19G11 is not a direct inhibitor of EPAS1, but is known to suppress the expression of the EPAS1 gene (Epas1) by acting on an unidentified target (NPL 7). Treatment of human cancer cell line HT1080 with […] suppressed VEGFA expression and GLUT1 expression induced by hypoxia (FIG. 7).

mouse IL-31 gene = test: IL-31 production inhibitory action: IL-31 gene expression by real-time PCR in antigen-stimulated CD4+ T cells from Dock8−/− AND Tg mice; type: cell-based
[5] = system: GLUT1 expression in human cancer cell line HT1080; test: Hypoxia-induced GLUT1 expression in HT1080; type: cell-based; settings: HT1080, 1% O2; FIG. 7
Experimental: as §3, §1, §4

EPAS1 = target: T1, EPAS1 (Mus musculus, UniProt P97481); test: Chromatin immunoprecipitation (ChIP) assay: recruitment of EPAS1 to the IL-31 gene promoter region in CD4+ T cells; type: cell-based; settings: antigen stimulation, 2.5 μM; FIG. 8
T1 construct: endogenous in cells; host or cells: CD4+ T cells from Dock8-/- AND Tg mice, stimulated with MCC88-103
T1 sequence (P97481 whole entry): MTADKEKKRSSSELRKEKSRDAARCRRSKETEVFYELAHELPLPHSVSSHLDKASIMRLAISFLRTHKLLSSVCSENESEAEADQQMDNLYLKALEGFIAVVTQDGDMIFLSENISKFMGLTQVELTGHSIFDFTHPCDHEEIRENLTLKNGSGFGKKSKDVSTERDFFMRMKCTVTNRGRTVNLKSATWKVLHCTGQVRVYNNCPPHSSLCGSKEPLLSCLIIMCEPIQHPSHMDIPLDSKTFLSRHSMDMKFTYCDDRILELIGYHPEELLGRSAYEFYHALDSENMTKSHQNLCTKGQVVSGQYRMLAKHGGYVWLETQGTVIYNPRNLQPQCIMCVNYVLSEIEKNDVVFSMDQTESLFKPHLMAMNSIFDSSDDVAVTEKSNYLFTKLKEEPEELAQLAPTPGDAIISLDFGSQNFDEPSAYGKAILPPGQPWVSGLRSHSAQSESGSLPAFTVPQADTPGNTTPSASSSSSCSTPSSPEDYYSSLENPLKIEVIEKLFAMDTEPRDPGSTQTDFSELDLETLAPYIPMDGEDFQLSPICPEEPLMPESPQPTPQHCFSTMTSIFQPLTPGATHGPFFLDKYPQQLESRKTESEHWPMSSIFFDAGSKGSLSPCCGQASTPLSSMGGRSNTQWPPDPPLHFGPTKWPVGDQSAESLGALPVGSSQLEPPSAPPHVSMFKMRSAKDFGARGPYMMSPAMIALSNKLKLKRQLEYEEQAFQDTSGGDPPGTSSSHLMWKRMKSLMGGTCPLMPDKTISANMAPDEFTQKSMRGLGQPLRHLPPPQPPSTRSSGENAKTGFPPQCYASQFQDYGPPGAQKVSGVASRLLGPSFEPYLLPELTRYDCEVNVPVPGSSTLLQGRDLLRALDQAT
Experimental: A ChIP assay was performed using activated mouse CD4^+ T cells and immortalized MEFs. Briefly, CD4^+ T cells from Dock8^−/− AND Tg mice were stimulated with MCC88-103 in the presence of a test compound (2.5 μM) or a vehicle alone (0.1% DMSO) for 24 hours. Immortalized MEFs were co-transfected with pcDNA-human EPAS1 (2 μg) in the presence of pGL4.10 IL31 (2 μg). Six hours after transfection, the MEFs were suspended in 10% FCS-containing DMEM that contains a test compound (10 μM) or a vehicle alone (0.1% DMSO) for another 24 hours.
The activated mouse CD4^+ cells and the transfected MEFs were treated with 0.5% formaldehyde at room temperature for 5 minutes and then neutralized with glycine at room temperature for 5 minutes. The resulting cells were washed twice with PBS containing a protease inhibitor, and then nuclei were isolated using a Magna ChIP™ HiSens kit (Millipore, Burlington, MS) according to the manufacturer's protocol. […] After centrifugation at 10,000 g at 4° C. for 10 minutes, the sheared chromatin DNA was obtained and treated with RNase and proteinase K for quantifying DNA content. […]
Magnetic beads preincubated with rabbit polyclonal IgG (ab171870; Abcam) were used for control studies. […] Eluted DNA and input chromatin DNA were analyzed with a CFX Connect™ thermal cycler (BIO-RAD) using SYBR Green PCR Master Mix (Thermo Fisher Scientific) and the following primers. […]

IL-2 gene (Il2) = test: IL-2 gene expression in CD4+ T cells from Dock8−/− AND Tg mice (real-time PCR); type: cell-based, mouse; settings: 2.5 μM; FIG. 2B
Experimental: as §1, §2

[6] = Mus musculus, CD4+ T, 24 h, read-out: qPCR results (IL-31 production (%)): based on the case using 0.1% DMSO taken as 100%

With `CC(C)c1ccc(/C=N/Nc2ccc(C(=O)O)cc2)cc1` [Compound 1, 4-(2-(4-Isopropylbenzylidene)hydrazinyl)benzoic Acid] the “effect on expression of IL-4 gene” value (IL-4 gene (Il4)) was “neither of these compounds had an effect”, the “IL-31 production by CD4+ T cells of AD patients” value (IL-31) was “reduced IL-31 production in a dose-dependent manner” and the “effect on non-specific T cell proliferation induced by PMA and ionomycin” value (CD4+ T cells; FIG. 4) was “neither of these compounds had an adverse effect”. For the same molecule, the “effect on non-specific T-cell proliferation response in vitro” value (CD4+ T cells; even when used at 50 μM) was “did not affect”, the “IL-2 production by CD4+ T cells of AD patients” value (IL-2) was “not affected” and the “activation of the human IL-31 gene promoter” value [1] was “significantly suppressed”. For the same molecule, the “body weight gain versus non-treated group” value [2] was “did not differ from the non-treated group”, the “histological or biochemical abnormalities” value [2] was “no histological or biochemical abnormalities” and the “time after oral administration within which compound was eluted into the blood” value [3] was at most 12 h. The “scratch behavior (number of scratching bouts during 2 hours)” value (CAG-OVA mice) was “significantly suppressed”, the “VEGFA expression induced by hypoxia” value [4] was “did not show such an effect of suppressing expression” and the “antigen-induced IL-31 gene expression (in words)” value (mouse IL-31 gene; 2.5 μM, FIG. 2A) was “significantly inhibited”. For the same molecule, the activity at 0.078 µM (mouse IL-31 gene; [6]) was 57.5%, the activity at 0.156 µM (mouse IL-31 gene; [6]) was 40.1% and the activity at 0.312 µM (mouse IL-31 gene; [6]) was 38.7%. For the same molecule, the activity at 0.625 µM (mouse IL-31 gene; [6]) was 23.9%, the activity at 1.25 µM (mouse IL-31 gene; [6]) was 16.4% and the “GLUT1 expression induced by hypoxia” value [5] was “did not show such an effect of suppressing expression”. The “recruitment of EPAS1 to the IL-31 gene promoter region (−1336 to −1042)” value (EPAS1) was “greatly reduced” and the “effect on expression of IL-2 gene” value (IL-2 gene (Il2)) was “neither of these compounds had an effect”.
